Columns and labels:
Assay type in all cases: cell-based
SK-N-BE2 = experiment: Expression of RA receptors under RA treatment; conditions: SK-N-BE2, RA 24 h
Experimental: (§1) Protein extraction and immunoblot. Cells were washed with ice-cold PBS buffer (Invitrogen, 20012050) and lysed with harvest buffer (10 mM Hepes pH 7.9, 50 mM NaCl, 500 mM sucrose, 0.1 mM EDTA and 0.5% Trition X-100) supplemented with 1% Halt inhibitors (Thermo Scientific™, 78443) for 10 minutes. Cell lysate was centrifuged at 3000 rpm for 3 min at 4° C. The supernatant containing cytosolic proteins was transferred to a different tube. The pellet containing nuclear proteins was dissolved with nuclear lysis buffer (10 mM Hepes pH 7.9, 0.5M NaCl, 0.1 mM EDTA, 0.1 mM EGTA and 0.1% NP40) supplemented with 1% Halt inhibitors (Thermo Scientific™, 78443) for 5 minutes at 4° C. Then the solution was sonicated at 4° C. for 6 cycles (1 cycle=30 s sonication and 30 s cooldown with “High” energy intensity) using a Bioruptor® Plus sonication (Diagenode, UCD-300). After sonication, the solution was centrifuged at 15,000 rpm for 10 minutes. The supernatant was kept as nuclear extraction. Protein concentration was determined by BCA assay (Thermo Scientific, 23227). 5 μg nuclear proteins or 7.5 μg cytosolic proteins were boiled in loading buffer with reducing reagents (Invitrogen, NuPAGE™ LDS Sample Buffer (4X), NP0007), then separated with SDS-PAGE (Nupage™ 4-12% Bis-Tris Protein Gels, 1.0 mm, Invitrogen™, NP0322BOX). Protein was transferred onto a nitrocellulose membrane (Thermo Scientific™, 88018). After blocking in 5% non-fat milk for 30 minutes at room temperature (RT), the primary antibody was added for incubation overnight at 4° C. After washing with TBST (CST, #9997, 1:10 diluted by deionized water) for 3 times, HRP-conjugated secondary antibodies were applied. Signals were detected with an ECL kit (Thermo Scientific™, 34577) by using BioRad Universal Hood II.

NB16 cells = experiment: Expression of RA receptors under RA treatment; conditions: NB16, RA 24 h
Experimental: as §1

NB16 = experiment: Cell proliferation and morphology change under RA treatment; conditions: NB16, 13-cis-RA
Experimental: (§2) Cell proliferation and clonogenic assay. 2×10^4 cells were seeded in 12 well-plate and allowed to attached overnight. Then the cells were treated with various conditions as indicated for 48 h or 96 h (n=3). After treatment, cells were counted using hemocytometer.

SMS-KCNR = experiment: as above; conditions: 13-cis-RA
Experimental: as §2

SK-N-BE(2) = experiment: as above; conditions: 13-cis-RA
Experimental: as §2

CHP134 = experiment: as above; conditions: CHP134, 13-cis-RA
Experimental: as §2

SK-N-BE(2) cells [1] = experiment: Global DNA methylation analysis by LC-MS (5mdc/dc); conditions: 1 μM, 5 h, 24 h and 48 h vs DMSO
SK-N-BE(2) cells [2] = experiment: Western blot of RA signaling proteins; conditions: 1 μM 5-AZA with 1 μM RA, 24 hrs
Experimental: as §1

[3] = system: RA-resistant neuroblastoma cells; experiment: Morphological differentiation with 5-AZA and 13-cis-RA; conditions: 5-AZA with 1 μM 13-cis-RA, 3 days and 6 days

SMILES	induction of RARα upon RA treatment (vs RA-sensitive cell lines) (SK-N-BE2)	induction of RARγ upon RA treatment (vs RA-sensitive cell lines) (SK-N-BE2)	induction of RARα upon RA treatment (vs RA-sensitive cell lines) (NB16 cells)	induction of RARγ upon RA treatment (vs RA-sensitive cell lines) (NB16 cells)	proliferation arrest (NB16; 48 hrs and 96 hrs)	differentiation morphology (NB16; 96 hrs)	proliferation (SMS-KCNR; 48 hrs and 96 hrs)	neuron differentiation morphology (SMS-KCNR; 96 hrs)	proliferation arrest (SK-N-BE(2); 48 hrs and 96 hrs)	differentiation morphology (SK-N-BE(2); 96 hrs)	proliferation (CHP134; 48 hrs and 96 hrs)	neuron differentiation morphology (CHP134; 96 hrs)	global DNA methylation (ratio of 5-methyl-deoxycytidine to deoxycytidine) (SK-N-BE(2) cells [1])	RA-induced expression of CRABP2 (SK-N-BE(2) cells [2])	RA-induced expression of RARγ (SK-N-BE(2) cells [2])	differentiation with RA (morphological changes) [3]
CC1=C(/C=C/C(C)=C/C=C/C(C)=C\C(=O)O)C(C)(C)CCC1 [RA, 13-cis-retinoic acid]	less induction	less induction	less induction	less induction	did not show	did not show	proliferation arrest	significantly induced	did not show	did not show	proliferation arrest	significantly induced	–	–	–	–
Nc1ncn([C@@H]2O[C@H](CO)[C@@H](O)[C@H]2O)c(=O)n1 [5-Aza, 5-Azacytidine]	–	–	–	–	–	–	–	–	–	–	–	–	reduced	enhanced	enhanced	induced differentiation
